Experimental data taken from patent US4239903A, “2-Aminotetralin derivatives and process for producing the same” (priority 1977, dated 1980).
Counter-ions that a name gives are not always drawn. Like-named read-outs stand apart in the source and are kept apart here.

Columns and labels:
[1] = tested on: colonic motility stimulated by neostigmine; experiment: Effect on colonic motility stimulated by neostigmine in rats; format: in vivo, rat (male STD Wistar strain); conditions: Rattus norvegicus, neostigmine-stimulated, dose at which inhibition was observed in 50% of rats
[2] = as above; format: in vivo, rat (male STD Wistar strain); conditions: rat, in vivo
[3] = Acute toxicity (LD50) in rats; conditions: rat, in vivo
[4] = tested on: colonic contraction caused by stimulation of pelvic nerve; experiment: Effect on colonic contraction caused by stimulation of pelvic nerve in anesthetized dogs; format: in vivo, dog (mongrel dogs of both sexes); conditions: Canis lupus familiaris, iv; for inhibition in vivo at 0.1 mg/kg: read-out: % Inhibition of Colonic Contraction; for ED50: read-out: c.ID50 (dose causing 50% inhibition of the colonic contraction by pelvic nerve stimulation)
Description: The compounds of the present invention are extremely useful as medicines particularly acting on the lower digestive tract. […] N-Ethyl-N-[4-(3,4-dimethoxybenzoyloxy)butyl]-3-(4-methoxyphenyl)-2-propylamine hydrochloride (hereinafter referred to as "mebeverine") known as an antispasmodic for the lower digestive tract was used as a reference.
The values shown in Table 1 were obtained according to the following method [as disclosed in European Journal of Pharmacology, 18, pp. 1-14 (1972)].
Mongrel dogs of both sexes weighing 8-15 kg were used.
After intravenous anesthesizing with pentobarbital in a dose of 30 mg/kg, the animals were fixed on their back and subjected to ventrotomy along the midline of the lower abdomen. After a rubber balloon filled with water was inserted into the descending colon via the anus, 100 μg/kg of each compound was injected intravenously and changes in the internal pressure of the balloon were recorded on a polygraph through a low pressure transducer. Electric stimulation (rectangular wave, 50 cps in frequency, 1 msec in duration, 4 V in voltage) was applied to the pelvic nerve for 5 seconds every three minutes. The percent inhibition of the colonic contraction was calculated according to the following relationship. [formula]
c.ID50 values were determined by the same method as was used for Table 1.

[5] = tested on: contractile response of the stomach to vagal stimulation; experiment: Contractile response of the stomach to vagal stimulation in anesthetized dogs; format: in vivo, dog (mongrel dogs of both sexes); conditions: for ED50: Canis lupus familiaris, iv, read-out: s.ID50 (dose causing 50% inhibition of the contractile response of the stomach to vagal stimulation); for s.ID50 /c.ID50 (selectivity of antispasmodic effect): i.v., stomach vs colon
Description: The compounds of the present invention are further characterized by the following property. The compounds of the present invention have selectively stronger antispasmodic effect on the lower part of the digestive tract than on the upper part of the digestive tract, in contrast to conventional anticholinergic antispasmodics which act non-selectively on the digestive tract. The evidence for this selectivity is exemplified by the results shown for representative compounds of the present invention in Table 3. In Table 3, the s.ID50 and c.ID50 values represent the doses causing 50% inhibition of the contractile response of the stomach to vagal stimulation and 50% inhibition of the colonic contraction by pelvic nerve stimulation, respectively, in dogs. These values and their ratios (s.ID50 /c.ID50) indicate that these compounds have higher selectivity than mebeverine, as is clear from Table 3.
The determination of gastric motility was carried out according to the method described in European Journal of Pharmacology, 18, pp. 1-14 (1972).
More specifically mongrel dogs of both sexes weighing 8-15 kg were used. After anesthesizing the animals with 30 mg/kg (i.v.) of pentobarbital, the animals were fixed on their back and a midline incision was made in the upper abdomen. A rubber balloon filled with water was inserted into the stomach through an incision in the greater curvature. Changes in internal pressure of the balloon were recorded on a polygraph via a low pressure transducer. Electric stimulation (rectangular wave, 20 cps in frequency, 1 msec in duration, 8 V in voltage) was applied to the vagus nerve for 10 seconds every three minutes. The percent inhibition of the contractile response of the stomach was calculated from the relationship shown above.

[6] = 100 μg/kg, i.v., pelvic nerve stimulation, anesthetized dogs

Compound	ED50 ([1]; iv) [mg/kg]	ED50 ([1]; po) [mg/kg]	safety margin (LD50/ED50) ([2]; po)	LD50 ([3]; po) [mg/kg]	inhibition in vivo at 0.1 mg/kg [4, 6] [%]	safety margin (LD50/ED50) ([2]; iv)	LD50 ([3]; iv) [mg/kg]	inhibition in vivo at 0.1 mg/kg [4] [%]	ED50 [4] [mg/kg]	ED50 [5] [mg/kg]	s.ID50 /c.ID50 (selectivity of antispasmodic effect) ([5]; dogs)	ED50 ([4]; dogs) [mg/kg]	ED50 ([5]; dogs) [mg/kg]
COc1ccc2c(c1)CCC(N(CCCCOC(=O)c1ccc(OC)c(OC)c1)C(C)C)C2.Cl (stereo not drawn) [Compound L, N-Isopropyl-N-[4-(3,4-dimethoxybenzoyloxy)butyl]-6-methoxy-1,2,3,4-tetrahydro-2-naphthylamine hydrochloride]	0.173	17.3	89	1540									
CCN(CCCCOC(=O)c1ccc(OC)c(OC)c1)C1CCc2cc(OC)ccc2C1.Cl (stereo not drawn) [Compound C, N-Ethyl-N-[4-(3,4-dimethoxybenzoyloxy)butyl]-6-methoxy-1,2,3,4-tetrahydro-2-naphthylamine hydrochloride]	0.169	14.4	> 139	> 2000	20	114	19.3						
CCN(CCCCOC(=O)c1ccc(OC)c(OC)c1)C(C)Cc1ccc(OC)cc1.Cl (stereo not drawn) [Mebeverine, N-Ethyl-N-[4-(3,4-dimethoxybenzoyloxy)butyl]-3-(4-methoxyphenyl)-2-propylamine hydrochloride, reference compound]	0.151	30		1540			17.7	22	> 0.3	0.823	< 2.74		
CCCN(CCCCOC(=O)c1ccc(OC)c(OC)c1)C1CCc2cc(OC)ccc2C1.Cl (stereo not drawn) [Compound E, N-Propyl-N-[4-(3,4-dimethoxybenzoyloxy)butyl]-6-methoxy-1,2,3,4-tetrahydro-2-naphthylamine hydrochloride]	0.173	17.3	41	707	22.4	129	22.3						
CCN(CCCCCCOC(=O)c1ccc(OC)c(OC)c1)C1CCc2cc(OC)c(OC)cc2C1.Cl (stereo not drawn) [Compound G, N-Ethyl-N-[6-(3,4-dimethoxybenzoyloxy)hexyl]-6,7-dimethoxy-1,2,3,4-tetrahydro-2-naphthylamine hydrochloride]	0.02	1.7	330	561	54.2	885	17.5						
CCN(CCCCOC(=O)c1ccc(OC)c(OC)c1)C1CCc2ccc(OC)cc2C1 (stereo not drawn) [Compound H, N-Ethyl-N-[4-(3,4-dimethoxybenzoyloxy)butyl]-7-methoxy-1,2,3,4-tetrahydro-2-naphthylamine hydrochloride]					30.9								
CCN(CCCCOC(=O)c1ccc(OC)c(OC)c1)C1CCc2ccccc2C1 (stereo not drawn) [Compound A, N-Ethyl-N-[4-(3,4-dimethoxybenzoyloxy)butyl]-1,2,3,4-tetrahydro-2-naphthylamine hydrochloride]					27.9								
CCN(CCCCOC(=O)c1ccc(OC)c(OC)c1)C1CCc2cc(OC)c(OC)cc2C1.Cl (stereo not drawn) [Compound F, N-Ethyl-N-[4-(3,4-dimethoxybenzoyloxy)butyl]-6,7-dimethoxy-1,2,3,4-tetrahydro-2-naphthylamine hydrochloride]	0.025	5.5	280	1540	63.8	648	16.2				4.67	0.057	0.266
CCN(CCCCOC(=O)c1ccc(OC)c(OC)c1)C1CCc2cccc(OC)c2C1 (stereo not drawn) [Compound K, N-Ethyl-N-[4-(3,4-dimethoxybenzoyloxy)butyl]-8-methoxy-1,2,3,4-tetrahydro-2-naphthylamine hydrochloride]					40								
CCN(CCCCCCOC(=O)c1ccc(OC)c(OC)c1)C1CCc2ccccc2C1.Cl (stereo not drawn) [Compound B, N-Ethyl-N-[6-(3,4-dimethoxybenzoyloxy)hexyl]-1,2,3,4-tetrahydro-2-naphthylamine hydrochloride]	0.086	5.5	> 364	> 2000	56	206	17.7						
CCN(CCCCCCOC(=O)c1ccc(OC)c(OC)c1)C1CCc2cc(OC)ccc2C1.Cl (stereo not drawn) [Compound D, N-Ethyl-N-[6-(3,4-dimethoxybenzoyloxy)hexyl]-6-methoxy-1,2,3,4-tetrahydro-2-naphthylamine hydrochloride]	0.046	5.5	515	2830	54.7	767	35.3				7.40	0.083	0.614
